Results: ChEMBL document CHEMBL1157403, “Lanostane-type triterpenoids from the roots of Kadsura coccinea” (2008)

What follows are molecules tested on HL-60 (assay: Antiproliferative activity against human HL60 cells after 3 days by trypan blue staining). Conditions: HL-60, 72 h.
Type: functional
In the case of C=C(C)[C@H](O)CC[C@@H](C)[C@H]1CC[C@@]2(C)C3=CC[C@@H](C(=C)C)[C@](C)(CCC(=O)O)[C@@H]3CC[C@]12C [SECO-COCCINIC ACID E], the GI50 is reported as 42.1 µM.
With C=C(C)[C@@H]1CC=C2[C@H](CC[C@]3(C)[C@@H]([C@H](C)CC(=O)C=C(C)C)CC[C@@]23C)[C@@]1(C)CCC(=O)O [SECO-COCCINIC ACID B] the GI50 was 13.3 µM.
C=C(C)[C@@H]1CC=C2[C@H](CC[C@]3(C)[C@@H]([C@H](C)CC(=O)CC(C)C)CC[C@@]23C)[C@@]1(C)CCC(=O)O [SECO-COCCINIC ACID A] gave a GI50 of 6.8 µM.
In the case of C=C(C)[C@@H]1CC=C2[C@H](CC[C@]3(C)[C@@H]([C@H](C)CC(=O)CC(C)(C)O)CC[C@@]23C)[C@@]1(C)CCC(=O)O [SECO-COCCINIC ACID C], the GI50 is reported as 12.1 µM.
O=c1[nH]cc(F)c(=O)[nH]1 [FLUOROURACIL] showed a GI50 of 3.8 µM.
